# Results reported in ChEMBL document CHEMBL6127023, “3-Tetrazolyl-β-carboline derivatives as potential neuroprotective agents” (Bioorg Med Chem, 2024).
# Activity calls are given as the source filed them. The calls are words filed in the database; no cut-off is given here.
# Legend:
# SH-SY5Y [1] = assay: Cytotoxicity against human SH-SY5Y cells assessed as decrease in resazurin dye upto 50 uM incubated for 24 hrs; format: toxicity, cell-based
# SH-SY5Y [2] = assay: Cytotoxicity against human SH-SY5Y cells upto 10 uM incubated for 24 hrs; format: toxicity, cell-based
# SH-SY5Y [3] = assay: Neuroprotective effect in MPP+-induced cytotoxicity in human SH-SY5Y cells assessed as increase in neutral red dye uptake at 1 to 10 uM preincubated with 500 uM MPP+ for 30 mins followed by compound treatment for 24 hrs; format: functional, cell-based; conditions: dose 1-10 µM, time 24.5 hrs
# SH-SY5Y [4] = assay: Cytotoxicity against human SH-SY5Y cells assessed as decrease in neutral red dye uptake at 50 uM incubated for 24 hrs relative to control; format: toxicity, cell-based; set-up: scale not given: the % may be the effect or the level left
# SH-SY5Y [5] = assay: Cytotoxicity against human SH-SY5Y cells assessed as decrease in neutral red dye uptake at 25 uM incubated for 24 hrs relative to control; format: toxicity, cell-based; set-up: scale not given: the % may be the effect or the level left
# SH-SY5Y [6] = assay: Neuroprotective effect in MPP+-induced cytotoxicity in human SH-SY5Y cells assessed as increase in neutral red dye uptake at 2.5 uM preincubated with 500 uM MPP+ for 30 mins followed by compound treatment for 24 hrs (reference value: 81.1 %); format: functional; conditions: time 24.5 hrs
# SH-SY5Y [7] = assay: Neuroprotective effect in Fe3+-induced cytotoxicity in human SH-SY5Y cells assessed as increase in neutral red dye uptake at 1 to 10 uM preincubated with 500 to 1000 uM FeNTA for 30 mins followed by compound treatment for 24 hrs; format: functional, cell-based; conditions: dose 1-10 µM, time 24.5 hrs
# SH-SY5Y [8] = assay: Neuroprotective effect in MPP+-induced cytotoxicity in human SH-SY5Y cells assessed as increase in neutral red dye uptake at 1 uM preincubated with 500 uM MPP+ for 30 mins followed by compound treatment for 24 hrs (reference value: 75 %); format: functional; conditions: time 24.5 hrs
# SH-SY5Y [9] = assay: Neuroprotective effect in MPP+-induced cytotoxicity in human SH-SY5Y cells assessed as increase in neutral red dye uptake at 2.5 uM preincubated with 500 uM MPP+ for 30 mins followed by compound treatment for 24 hrs (reference value: 75 %); format: functional; conditions: time 24.5 hrs
# SH-SY5Y [10] = assay: Neuroprotective effect in MPP+-induced cytotoxicity in human SH-SY5Y cells assessed as increase in neutral red dye uptake at 5 uM preincubated with 500 uM MPP+ for 30 mins followed by compound treatment for 24 hrs (reference value: 81.1 %); format: functional; conditions: time 24.5 hrs
# SH-SY5Y [11] = assay: Neuroprotective effect in MPP+-induced cytotoxicity in human SH-SY5Y cells assessed as increase in neutral red dye uptake at 1 uM preincubated with 500 uM MPP+ for 30 mins followed by compound treatment for 24 hrs (reference value: 81.1 %); format: functional; conditions: time 24.5 hrs
# SH-SY5Y [12] = assay: Cytotoxicity against human SH-SY5Y cells assessed as decrease in neutral red dye uptake at 10 uM incubated for 24 hrs relative to control; format: toxicity, cell-based; set-up: scale not given: the % may be the effect or the level left
# SH-SY5Y [13] = assay: Neuroprotective effect in MPP+-induced cytotoxicity in human SH-SY5Y cells assessed as increase in neutral red dye uptake at 2.5 uM preincubated with 500 uM MPP+ for 30 mins followed by compound treatment for 24 hrs (reference value: 83.9 %); format: functional; conditions: time 24.5 hrs
# SH-SY5Y [14] = assay: Neuroprotective effect in MPP+-induced cytotoxicity in human SH-SY5Y cells assessed as increase in neutral red dye uptake at 2.5 uM preincubated with 1000 uM MPP+ for 30 mins followed by compound treatment for 24 hrs (reference value: 76.2 %); format: functional; conditions: time 24.5 hrs
# SH-SY5Y [15] = assay: Induction of ROS production in human SH-SY5Y cells at 50 uM incubated for 24 hrs by DCFH-DA probe based analysis relative to control; format: functional
# SH-SY5Y [16] = assay: Neuroprotective effect in MPP+-induced cytotoxicity in human SH-SY5Y cells assessed as increase in neutral red dye uptake at 5 uM preincubated with 1000 uM MPP+ for 30 mins followed by compound treatment for 24 hrs (reference value: 76.2 %); format: functional; conditions: time 24.5 hrs
# SH-SY5Y [17] = assay: Neuroprotective effect in Fe3+-induced cytotoxicity in human SH-SY5Y cells assessed as increase in neutral red dye uptake at 2.5 to 5 uM preincubated with 1000 uM FeNTA for 30 mins followed by compound treatment for 24 hrs; format: functional, cell-based; conditions: dose 2.5-5 µM, time 24.5 hrs
# SH-SY5Y [18] = assay: Cytotoxicity against human SH-SY5Y cells assessed as decrease in resazurin dye at 25 uM incubated for 24 hrs relative to control; format: toxicity, cell-based; set-up: scale not given: the % may be the effect or the level left
# SH-SY5Y [19] = assay: Cytotoxicity against human SH-SY5Y cells assessed as decrease in resazurin dye at 10 uM incubated for 24 hrs relative to control; format: toxicity, cell-based; set-up: scale not given: the % may be the effect or the level left
# SH-SY5Y [20] = assay: Cytotoxicity against human SH-SY5Y cells at 5 uM incubated for 24 hrs; format: toxicity, cell-based
# SH-SY5Y [21] = assay: Neuroprotective effect in MPP+-induced cytotoxicity in human SH-SY5Y cells assessed as increase in neutral red dye uptake at 1 uM preincubated with 1000 uM MPP+ for 30 mins followed by compound treatment for 24 hrs (reference value: 76.2 %); format: functional; conditions: time 24.5 hrs
# SH-SY5Y [22] = assay: Cytotoxicity against human SH-SY5Y cells assessed as decrease in resazurin dye at 50 uM incubated for 24 hrs relative to control; format: toxicity, cell-based; set-up: scale not given: the % may be the effect or the level left
# SH-SY5Y [23] = assay: Cytotoxicity against human SH-SY5Y cells assessed as decrease in neutral red dye uptake upto 50 uM incubated for 24 hrs; format: toxicity, cell-based
# SH-SY5Y [24] = assay: Neuroprotective effect in MPP+-induced cytotoxicity in human SH-SY5Y cells assessed as increase in neutral red dye uptake at 5 uM preincubated with 500 uM MPP+ for 30 mins followed by compound treatment for 24 hrs (reference value: 83.3 %); format: functional; conditions: time 24.5 hrs
# SH-SY5Y [25] = assay: Neuroprotective effect in Fe3+-induced cytotoxicity in human SH-SY5Y cells assessed as increase in neutral red dye uptake at 1 uM preincubated with 500 uM FeNTA for 30 mins followed by compound treatment for 24 hrs (reference value: 81.4 %); format: functional; conditions: time 24.5 hrs
# SH-SY5Y [26] = assay: Neuroprotective effect in MPP+-induced cytotoxicity in human SH-SY5Y cells assessed as increase in neutral red dye uptake at 1 uM preincubated with 500 uM MPP+ for 30 mins followed by compound treatment for 24 hrs (reference value: 83.3 %); format: functional; conditions: time 24.5 hrs
# SH-SY5Y [27] = assay: Neuroprotective effect in MPP+-induced cytotoxicity in human SH-SY5Y cells assessed as increase in neutral red dye uptake at 5 uM preincubated with 1000 uM MPP+ for 30 mins followed by compound treatment for 24 hrs (reference value: 75.8 %); format: functional; conditions: time 24.5 hrs
# SH-SY5Y [28] = assay: Neuroprotective effect in MPP+-induced cytotoxicity in human SH-SY5Y cells assessed as increase in neutral red dye uptake at 2.5 uM preincubated with 1000 uM MPP+ for 30 mins followed by compound treatment for 24 hrs (reference value: 75.8 %); format: functional; conditions: time 24.5 hrs
# SH-SY5Y [29] = assay: Neuroprotective effect in MPP+-induced cytotoxicity in human SH-SY5Y cells assessed as increase in neutral red dye uptake at 2.5 uM preincubated with 500 uM MPP+ for 30 mins followed by compound treatment for 24 hrs (reference value: 83.3 %); format: functional; conditions: time 24.5 hrs
# SH-SY5Y [30] = assay: Neuroprotective effect in MPP+-induced cytotoxicity in human SH-SY5Y cells assessed as increase in neutral red dye uptake at 1 uM preincubated with 1000 uM MPP+ for 30 mins followed by compound treatment for 24 hrs (reference value: 75.8 %); format: functional; conditions: time 24.5 hrs
smiles,measurement,setting,value
Clc1ccccc1-c1nc(-c2nnnn2Cc2ccccc2)cc2c1[nH]c1ccccc12,Activity,SH-SY5Y [1],Non-Toxic
same,Activity,SH-SY5Y [2],Non-Toxic
same,Activity,SH-SY5Y [3],Active
same,Activity,SH-SY5Y [4],81.7%
same,Activity,SH-SY5Y [5],84%
CN(C)c1ccc(-c2nc(-c3nnnn3Cc3ccccc3)cc3c2[nH]c2ccccc23)cc1,Activity,SH-SY5Y [6],92.3%
same,Activity,SH-SY5Y [7],inactive
same,Activity,SH-SY5Y [8],90.3%
same,Activity,SH-SY5Y [2],Non-Toxic
same,Activity,SH-SY5Y [9],83.6%
same,Activity,SH-SY5Y [10],85.8%
same,Activity,SH-SY5Y [4],80.5%
same,Activity,SH-SY5Y [11],97.8%
Fc1ccc(-c2nc(-c3nnnn3Cc3ccccc3)cc3c2[nH]c2ccccc23)cc1,Activity,SH-SY5Y [12],83.6%
same,Activity,SH-SY5Y [13],91.4%
same,Activity,SH-SY5Y [14],83.4%
same,Activity,SH-SY5Y [15],108.2%
same,Activity,SH-SY5Y [16],83.2%
same,Activity,SH-SY5Y [17],Active
same,Activity,SH-SY5Y [18],62.2%
same,Activity,SH-SY5Y [19],80%
same,Activity,SH-SY5Y [20],Non-Toxic
same,Activity,SH-SY5Y [21],84.8%
same,Activity,SH-SY5Y [22],48.5%
same,Activity,SH-SY5Y [4],56.1%
same,Activity,SH-SY5Y [5],70.5%
O=[N+]([O-])c1cccc(-c2nc(-c3nnnn3Cc3ccccc3)cc3c2[nH]c2ccccc23)c1,Activity,SH-SY5Y [2],Non-Toxic
same,Activity,SH-SY5Y [23],Non-Toxic
same,Activity,SH-SY5Y [3],inactive
same,Activity,SH-SY5Y [22],92.6%
c1ccc(Cn2nnnc2-c2cc3c([nH]c4ccccc43)c(-c3ccccc3)n2)cc1,Activity,SH-SY5Y [12],85.6%
same,Activity,SH-SY5Y [24],93.5%
same,Activity,SH-SY5Y [25],87.6%
same,Activity,SH-SY5Y [26],91.4%
same,Activity,SH-SY5Y [27],89.1%
same,Activity,SH-SY5Y [28],84.6%
same,Activity,SH-SY5Y [18],74%
same,Activity,SH-SY5Y [29],92.1%
same,Activity,SH-SY5Y [20],Non-Toxic
same,Activity,SH-SY5Y [22],59.3%
same,Activity,SH-SY5Y [30],87.1%
same,Activity,SH-SY5Y [4],65.9%
same,Activity,SH-SY5Y [5],81.3%
